Assay results published in patent EP0364819A2, “LHRH analogs” (The Administrators of The Tulane Educational Fund, priority 1988, dated 1990).

Legend:
[1] = molecular target: T1, membrane receptors of human breast cancer cells (Homo sapiens, UniProt P30968); assay: Receptor binding to human breast cancer cell membranes with 125I-labeled [D-Trp6]LHRH; conditions: high affinity binding sites, ¹²⁵l-labeled [D-Trp⁶]LHRH
T1 construct: human prostate and breast cancer cell membranes; endogenous in cells
T1 sequence (P30968 1-328): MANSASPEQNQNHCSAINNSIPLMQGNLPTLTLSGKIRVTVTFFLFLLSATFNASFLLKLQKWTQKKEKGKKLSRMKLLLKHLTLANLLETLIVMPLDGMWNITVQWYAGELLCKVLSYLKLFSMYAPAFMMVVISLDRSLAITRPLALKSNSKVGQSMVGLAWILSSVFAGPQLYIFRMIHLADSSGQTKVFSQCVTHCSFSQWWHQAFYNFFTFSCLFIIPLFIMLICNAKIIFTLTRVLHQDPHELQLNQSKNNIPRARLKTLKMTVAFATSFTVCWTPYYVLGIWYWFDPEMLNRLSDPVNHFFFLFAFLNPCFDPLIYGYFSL
Protocol: (c)Affinity for peptides to human prostate and breast cancer cell membranes.
(§1) This is determined by using labelled LHRH and [D-Trp⁶]LHRH. The assay is carried out similarly to that described by T. Kadar et al., Proc. Natl. Acad. Sci. USA, 85, 890-894 (1988).
(§2) Table 2 presents the antiovulatory activity of the claimed compounds having LHRH-inhibiting properties. The inhibitory action was determined in vivo, in 4-day cycling rats as described [A. Corbin and C. W. Beattie, Endocr. Res. Commun., 2, 1-23 (1975)]. Affinities of the claimed compounds to membrane receptors of rat pituitary and human breast cancer cells are also given in Tables 1 and 2 as determined by using [[…],D-Trp⁶]LHRH.

[2] = molecular target: T2, membrane receptors of rat pituitary (Rattus norvegicus, UniProt P30969); assay: Receptor binding to rat pituitary membranes with 125I-labeled [D-Trp6]LHRH; conditions: high affinity binding sites, pituitary of male rats, ¹²⁵l-labeled [D-Trp⁶]LHRH
T2 construct: membrane receptors of rat pituitary; from tissue; host or cells: rat pituitary membranes
T2 sequence (P30969 1-327): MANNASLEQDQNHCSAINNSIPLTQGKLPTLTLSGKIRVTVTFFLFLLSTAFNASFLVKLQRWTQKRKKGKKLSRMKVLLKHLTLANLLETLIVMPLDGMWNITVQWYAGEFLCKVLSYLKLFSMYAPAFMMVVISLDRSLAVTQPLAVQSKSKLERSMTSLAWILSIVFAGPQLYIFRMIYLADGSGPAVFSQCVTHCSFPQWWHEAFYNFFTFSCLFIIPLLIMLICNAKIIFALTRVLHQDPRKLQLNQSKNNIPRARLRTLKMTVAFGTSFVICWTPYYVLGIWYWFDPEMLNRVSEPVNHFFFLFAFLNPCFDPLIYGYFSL
Protocol: as §1, §2

[3] = tested on: dispersed rat pituitary cell superfusion system; assay: LH release in dispersed rat pituitary cell superfusion system (LHRH agonistic activity); assay type: cell-based; conditions: peptide infused for 3 minutes at various concentration; LH released compared to that released by 3 nM LHRH
Protocol: The ability of compounds to influence LH release in vitro is assayed by using a superfused rat pituitary cell system [S. Vigh and A. V. Schally, Peptides, 5 Suppl.
The peptide was infused for 3 minutes at various concentration, and the amount of LH released was compared to that released by 3 nM LHRH.

[4] = tested on: rat mammary tumor cell line MT-4; assay: Inhibition of 3H-thymidine incorporation into DNA of MT-4 monolayer cultures; assay type: cell-based; conditions: for DPM/Well x1000: mean +/- standard error
Protocol: (d) Ability of peptides of Formula I to inhibit incorporation of [³H]thymidine into DNA of monolayer cultures the rat mammary tumor cell line MT-4
This is assayed as described [V. K. Sondak et al., Cancer Research, 44, 1725-1728 (1984); F. Holzel et al., J. Cancer Res. Clin. Oncol. 109, 217-226 (1985); M. Albert et al., J. Cancer Res. Clin. Oncol. 109, 210-216 (1985)].
To obtain information about the cytotoxic properties of the compounds, the inhibition of ³H-thymidine incorporation into DNA of monolayer cultures of the rat mammary tumor cell line MT-4 was studied. Experiments started with 100 K MT-4 cells/plate on day 0. Dose was changed 3 times, total incubation time with the sample was 5 days. 1µCu ³H-thymidine/ml was added on day 4.

[5] = Table 2, antagonistic analogues
[6] = DME Medium + 0% Serum (plus additives), Dose 1 ng/ml (6x10⁻¹⁰M)
[7] = DME Medium + 0% Serum (plus additives), Dose 10 ng/ml
[8] = DME Medium + 0% Serum (plus additives), Dose 100 ng/ml
[9] = DME Medium + 0% Serum (plus additives), Dose 1000 ng/ml
[10] = DME Medium + 0% Serum (plus additives), Dose 2000 ng/ml
[11] = DME Medium + 10% Serum, Dose 1 ng/ml (6x10⁻¹⁰M)
[12] = DME Medium + 10% Serum, Dose 10 ng/ml
[13] = DME Medium + 10% Serum, Dose 100 ng/ml
[14] = DME Medium + 10% Serum, Dose 1000 ng/ml
[15] = DME Medium + 10% Serum, Dose 2000 ng/ml

In the case of “Ac-D-Nal(2)-D-Phe(4Cl)-D-Pal(3)-Ser-Arg-D-Lys[(Cu⁺⁺)(SAL)₂(A₂bu-Eac)]-Leu-Arg-Pro-D-Ala-NH₂ [XXVIII]”, the “Binding affinity, Ka1, for membrane receptors of cancer cells” value (“Binding affinity, Ka1 … of cancer cells” for short) [1, 5] is reported as 0.192 nM-¹.
In the case of “Ac-D-Nal(2)-D-Phe(4Cl)-D-Pal(3)-Ser-Arg-D-Lys[(PtCl₂)-A₂bu-Eac)]-Leu-Arg-Pro-D-Ala-NH₂ [XXVII]”, the “Binding affinity, Ka1 … of cancer cells” value [1, 5] is reported as 2.152 nM-¹.
With “Ac-D-Nal(2)D-Phe(4Cl)-D-Pal(3)-Ser-Arg-D-Lys[(Ni⁺⁺)(SAL)₂(DL-A₂pr)]-Leu-Arg-Pro-D-Ala-NH₂ [XIII]” the “Binding affinity, Ka1, for membrane receptors of pituitary” value (from here on “Binding affinity, Ka1 … of pituitary”) [2, 5] was 1.821 nM-¹ and the “Binding affinity, Ka1 … of cancer cells” value [1, 5] was 0.878 nM-¹.
In the case of “pGlu-His-Trp-Ser-Tyr-D-Lys [(Ni⁺⁺)(CISAL)₂(D-A₂pr)]-Leu-Arg-Pro-Gly-NH₂ [Example X]”, the “Hormonal activity* LH responses rel. to LHRH (= 1)” value [3] is reported as 4, the “Binding affinity, Ka1 … of pituitary” value ([2]; Table 1, agonistic analogues) is reported as 4.513 nM⁻¹ and the “Binding affinity, Ka1 … of cancer cells” value ([1]; Table 1, agonistic analogues) is reported as 2.236 nM⁻¹.
In the case of “pGlu-His-Trp-Ser-Tyr-D-Lys[(Cu²²)(CISAL)₂(DL-A₂pr)]-Leu-Arg-Pro-Gly-NH₂ [Example IX]”, the “Hormonal activity* LH responses rel. to LHRH (= 1)” value [3] is reported as 10, the “Binding affinity, Ka1 … of pituitary” value ([2]; Table 1, agonistic analogues) is reported as 8.625 nM⁻¹ and the “Binding affinity, Ka1 … of cancer cells” value ([1]; Table 1, agonistic analogues) is reported as 3.995 nM⁻¹.
For “pGlu-His-Trp-Ser-Tyr-D-Lys[(Cu⁺⁺)(FUR)₂(DL-A₂pr)]-Leu-Arg-Pro-Gly-NH₂ [XVII]”, the “Hormonal activity* LH responses rel. to LHRH (= 1)” value [3] was 10, the “Binding affinity, Ka1 … of pituitary” value ([2]; Table 1, agonistic analogues) was 1.770 nM⁻¹ and the “Binding affinity, Ka1 … of cancer cells” value ([1]; Table 1, agonistic analogues) was 0.536 nM⁻¹.
“pGlu-His-Trp-Ser-Tyr-D-Lys[(Cu⁺⁺)(PEN) ₂(A₂pr)]-Leu-Arg-Pro-Gly-NH₂ [Example XXI]” was tested, and the “Hormonal activity* LH responses rel. to LHRH (= 1)” value [3] was 10.6, the “Binding affinity, Ka1 … of pituitary” value ([2]; Table 1, agonistic analogues) was 10.989 nM⁻¹ and the “Binding affinity, Ka1 … of cancer cells” value ([1]; Table 1, agonistic analogues) was 5.096 nM⁻¹.
With “pGlu-His-Trp-Ser-Tyr-D-Lys[(Cu⁺⁺)(POL)₂(DL-A₂bu)]-Leu-Arg-Pro-Gly-NH₂ [XXV]” the “Hormonal activity* LH responses rel. to LHRH (= 1)” value [3] was 5.5, the “Binding affinity, Ka1 … of pituitary” value ([2]; Table 1, agonistic analogues) was 6.405 nM⁻¹ and the “Binding affinity, Ka1 … of cancer cells” value ([1]; Table 1, agonistic analogues) was 3.141 nM⁻¹.
In the case of “pGlu-His-Trp-Ser-Tyr-D-Lys[(Cu⁺⁺)(POLP)₂(DL-A₂bu)]-Leu-Arg-Pro-Gly-NH₂ [Example XVI]”, the “Hormonal activity* LH responses rel. to LHRH (= 1)” value [3] is reported as 1.5, the “Binding affinity, Ka1 … of pituitary” value ([2]; Table 1, agonistic analogues) is reported as 9.751 nM⁻¹ and the “Binding affinity, Ka1 … of cancer cells” value ([1]; Table 1, agonistic analogues) is reported as 5.038 nM⁻¹.
In the case of “pGlu-His-Trp-Ser-Tyr-D-Lys[(Cu⁺⁺)(SAL) 2(A₂pr)]-Leu-Arg-Pro-Gly-NH₂ [VIA]”, the “Hormonal activity* LH responses rel. to LHRH (= 1)” value [3] is reported as 12, the “Binding affinity, Ka1 … of pituitary” value ([2]; Table 1, agonistic analogues) is reported as 3.051 nM⁻¹ and the “Binding affinity, Ka1 … of cancer cells” value ([1]; Table 1, agonistic analogues) is reported as 1.348 nM⁻¹.
With “pGlu-His-Trp-Ser-Tyr-D-Lys[(Cu⁺⁺)(SAL) ₂(A₂pr)]-Leu-Arg-Pro-Gly-NH₂ [Example VII]” the “Hormonal activity* LH responses rel. to LHRH (= 1)” value [3] was 10, the “Binding affinity, Ka1 … of pituitary” value ([2]; Table 1, agonistic analogues) was 7.968 nM⁻¹ and the “Binding affinity, Ka1 … of cancer cells” value ([1]; Table 1, agonistic analogues) was 3.589 nM⁻¹. For the same substance, the “%Inhibition” value [4, 6] was 41%, the “DPM/Well x1000” value [4, 6] was 249+/-30.5 DPM/Well x1000 and the “%Inhibition” value [4, 7] was 42%. The “DPM/Well x1000” value [4, 7] was 242+/-32.1 DPM/Well x1000, the “%Inhibition” value [4, 8] was 56% and the “DPM/Well x1000” value [4, 8] was 186+/-13.2 DPM/Well x1000. The “%Inhibition” value [4, 9] was 52%, the “DPM/Well x1000” value [4, 9] was 204+/-40.9 DPM/Well x1000 and the “%Inhibition” value [4, 10] was 41%. For the same substance, the “DPM/Well x1000” value [4, 10] was 249+/-45.1 DPM/Well x1000, the “%Inhibition” value [4, 11] was 53% and the “DPM/Well x1000” value [4, 11] was 48+/-8.6 DPM/Well x1000. The “%Inhibition” value [4, 12] was 61%, the “DPM/Well x1000” value [4, 12] was 40+/-6.7 DPM/Well x1000 and the “%Inhibition” value [4, 13] was 59%. For the same substance, the “DPM/Well x1000” value [4, 13] was 42+/-10.4 DPM/Well x1000, the “%Inhibition” value [4, 14] was 65% and the “DPM/Well x1000” value [4, 14] was 36+/-5.1 DPM/Well x1000. The “%Inhibition” value [4, 15] was 62%, the “DPM/Well x1000” value [4, 15] was 39+/-4.6 DPM/Well x1000 and the “inhibition of ³H-thymidine incorporation into DNA” value ([4]; at a concentration of 6x10.⁻¹⁰ M, total incubation time 5 days) was “strong inhibitory effect”.
For “pGlu-His-Trp-Ser-Tyr-D-Lys[(Cu⁺⁺)(SAL)₂(DL-A₂bu)]-Leu-Arg-Pro-Gly-NH₂ [XIV]”, the “Hormonal activity* LH responses rel. to LHRH (= 1)” value [3] was 25, the “Binding affinity, Ka1 … of pituitary” value ([2]; Table 1, agonistic analogues) was 5.589 nM⁻¹ and the “Binding affinity, Ka1 … of cancer cells” value ([1]; Table 1, agonistic analogues) was 1.628 nM⁻¹.
“pGlu-His-Trp-Ser-Tyr-D-Lys[(Ni⁺⁺)(SAL) 2(A₂pr)]-Leu-Arg-Pro-Gly-NH₂ [VIIIA]” was tested, and the “Hormonal activity* LH responses rel. to LHRH (= 1)” value [3] was 12, the “Binding affinity, Ka1 … of pituitary” value ([2]; Table 1, agonistic analogues) was 9.710 nM⁻¹ and the “Binding affinity, Ka1 … of cancer cells” value ([1]; Table 1, agonistic analogues) was 5.234 nM⁻¹.
With “pGlu-His-Trp-Ser-Tyr-D-Lys[(Ni⁺⁺)(SAL)₂(D-A₂pr)]-Leu-Arg-Pro-Gly-NH₂ [VIIIB]” the “Hormonal activity* LH responses rel. to LHRH (= 1)” value [3] was 10, the “Binding affinity, Ka1 … of pituitary” value ([2]; Table 1, agonistic analogues) was 6.457 nM⁻¹ and the “Binding affinity, Ka1 … of cancer cells” value ([1]; Table 1, agonistic analogues) was 3.334 nM⁻¹.
For “pGlu-His-Trp-Ser-Tyr-D-Lys[(PtCl₂)(DL-A₂pr)]-Leu-Arg-Pro-Gly-NH₂ [Example III]”, the “Hormonal activity* LH responses rel. to LHRH (= 1)” value [3] was 55, the “Binding affinity, Ka1 … of pituitary” value ([2]; Table 1, agonistic analogues) was 3.285 nM⁻¹ and the “Binding affinity, Ka1 … of cancer cells” value ([1]; Table 1, agonistic analogues) was 1.743 nM⁻¹.
“pGlu-His-Trp-Ser-Tyr-D-Lys[Cu⁺⁺) POL)₂(DL-A₂pr)]-Leu-Arg-Pro-Gly-NH₂ [XVIII]” was tested, and the “Hormonal activity* LH responses rel. to LHRH (= 1)” value [3] was 9, the “Binding affinity, Ka1 … of pituitary” value ([2]; Table 1, agonistic analogues) was 5.817 nM⁻¹ and the “Binding affinity, Ka1 … of cancer cells” value ([1]; Table 1, agonistic analogues) was 3.005 nM⁻¹.
“pGlu-His-Trp-Ser-Tyr-D-Lys[Cu⁺⁺)(POLP) ₂(A₂pr)]-Leu-Arg-Pro-Gly-NH₂ [XIX]” was tested, and the “Hormonal activity* LH responses rel. to LHRH (= 1)” value [3] was 0.3, the “Binding affinity, Ka1 … of pituitary” value ([2]; Table 1, agonistic analogues) was 8.676 nM⁻¹ and the “Binding affinity, Ka1 … of cancer cells” value ([1]; Table 1, agonistic analogues) was 4.528 nM⁻¹.
